# Publication PMC5814057, “Folic acid derived-P5779 mimetics regulate DAMP-mediated inflammation through disruption of HMGB1:TLR4:MD-2 axes” (PLoS ONE, 2018)
# pKd: −log10 of the molar value.
# Tests used:
# MD-2 = biological target: T1, MD-2 (Homo sapiens, UniProt Q9Y6Y9); assay: SPR direct binding to immobilized MD-2 (Biacore T200); details: MD-2 immobilized on CM5 chip
# T1 construct: purchased R&D Systems 1787-MD
# T1 sequence (Q9Y6Y9 19-160): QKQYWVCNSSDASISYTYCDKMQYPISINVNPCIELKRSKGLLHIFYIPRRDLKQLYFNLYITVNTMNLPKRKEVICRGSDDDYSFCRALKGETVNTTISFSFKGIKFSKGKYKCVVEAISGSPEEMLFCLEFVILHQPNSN
# Procedure: (§1) Biacore T200 (GE Healthcare, USA) was used for real-time binding interaction studies. […] For binding analyses, CM5 series chips (GE Healthcare) were activated and the reference flow-cell was blocked by 1 M ethanolamine (pH = 8.5). The ligand protein MD-2 dilution (10 ug/mL in 10 mM Acetate buffer pH 5) or HMGB1 (20 ug/mL in 10 mM acetate buffer pH = 4.5) or TLR4/MD2 complex (10 ug/mL in 10 mM acetate buffer pH 4.5) were subjected to the sample flow-cell at the flow rate of 10 uL/min until the surface Plasmon resonance reached 1000–2000 RU. Analytes (Folic acid analogues) diluted into 5 different concentrations were sequentially injected at a flow rate of 30uL/min for 60s or 120s (TLR4/MD-2). The dissociation time was set for 1 minute or 2 minutes (TLR4/MD-2). The equilibrium dissociation constant (KD) was obtained to evaluate the binding affinity by using the BIAEvaluation 2.0 software (GE Healthcare) supposing a 1:1 binding ratio. At least 3 independent experiments were performed.
# TLR4/MD-2 complex = biological target: T2, TLR4/MD-2 complex (Homo sapiens, UniProt O00206+Q9Y6Y9); assay: SPR direct binding to immobilized TLR4/MD-2 complex; details: TLR4/MD-2 complex immobilized
# T2 construct: purchased R&D Systems 3146-TM-050
# Procedure: Biacore T200 (GE Healthcare, USA) was used for real-time binding interaction studies. Recombinant human TLR4/MD2 (R&D 3146-TM-050) complex protein and MD2 (R&D 1787-MD) protein were purchased from R&D Systems (Minneapolis, USA). For binding analyses, CM5 series chips (GE Healthcare) were activated and the reference flow-cell was blocked by 1 M ethanolamine (pH = 8.5). The ligand protein MD-2 dilution (10 ug/mL in 10 mM Acetate buffer pH 5) or HMGB1 (20 ug/mL in 10 mM acetate buffer pH = 4.5) or TLR4/MD2 complex (10 ug/mL in 10 mM acetate buffer pH 4.5) were subjected to the sample flow-cell at the flow rate of 10 uL/min until the surface Plasmon resonance reached 1000–2000 RU. Analytes (Folic acid analogues) diluted into 5 different concentrations were sequentially injected at a flow rate of 30uL/min for 60s or 120s (TLR4/MD-2). The dissociation time was set for 1 minute or 2 minutes (TLR4/MD-2). The equilibrium dissociation constant (KD) was obtained to evaluate the binding affinity by using the BIAEvaluation 2.0 software (GE Healthcare) supposing a 1:1 binding ratio. At least 3 independent experiments were performed.
# HMGB1 = assay: SPR direct binding to immobilized HMGB1
# Procedure: as §1
# [1] = Stability of compound noted for the SPR experiment; assay type: physicochemical; details: excluded from the SPR experiment
# T2 sequence (O00206 24-631 limits assumed): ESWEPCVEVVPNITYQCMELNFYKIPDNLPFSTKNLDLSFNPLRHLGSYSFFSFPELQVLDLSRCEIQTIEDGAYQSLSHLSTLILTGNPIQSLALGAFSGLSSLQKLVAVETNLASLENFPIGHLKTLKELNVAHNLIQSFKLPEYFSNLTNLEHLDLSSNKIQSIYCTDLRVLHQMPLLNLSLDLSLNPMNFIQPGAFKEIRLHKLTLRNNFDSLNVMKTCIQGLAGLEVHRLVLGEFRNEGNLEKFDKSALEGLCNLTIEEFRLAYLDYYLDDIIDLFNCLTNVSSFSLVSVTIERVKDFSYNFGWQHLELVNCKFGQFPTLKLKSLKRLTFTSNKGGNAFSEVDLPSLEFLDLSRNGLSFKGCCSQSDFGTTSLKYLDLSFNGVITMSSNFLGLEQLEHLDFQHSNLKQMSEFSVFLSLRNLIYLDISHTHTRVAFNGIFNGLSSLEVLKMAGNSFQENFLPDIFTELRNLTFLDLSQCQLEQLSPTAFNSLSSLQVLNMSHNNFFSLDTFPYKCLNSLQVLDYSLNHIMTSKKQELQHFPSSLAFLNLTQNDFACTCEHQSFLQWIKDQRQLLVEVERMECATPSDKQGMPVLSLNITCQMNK
# T2 sequence (Q9Y6Y9 17-160 limits assumed): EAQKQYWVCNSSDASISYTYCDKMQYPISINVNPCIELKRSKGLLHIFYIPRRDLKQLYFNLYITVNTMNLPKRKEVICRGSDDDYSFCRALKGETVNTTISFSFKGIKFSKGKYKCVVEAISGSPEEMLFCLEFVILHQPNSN
pKd (MD-2; 1:1 binding),Structure (SMILES),pKd (MD-2),further results
,"Nc1nc(N)c2nc(CNc3ccc(C(=O)N[C@@H](CCC(=O)O)C(=O)O)cc3)cnc2n1 [Aminopterin, aminopterin]",6.52,
5.62,"Nc1nc(=O)c2nc(CNc3ccc(C(=O)N[C@@H](CCC(=O)O)C(=O)O)cc3)cnc2[nH]1 [Folic acid, folic acid]",,binding to MD-2 (in words) (MD-2): moderate binding; pKd (TLR4/MD-2 complex): 6.27
4.82,"Nc1nc2c(c(=O)[nH]1)N(C=O)C(CNc1ccc(C(=O)N[C@@H](CCC(=O)O)C(=O)O)cc1)CN2 (stereo partly drawn) [Leucovorin, leucovorin]",,
,"CN(Cc1cnc2nc(N)nc(N)c2n1)c1ccc(C(=O)N[C@@H](CCC(=O)O)C(=O)O)cc1 [Methotrexate, methotrexate]",6.67,binding to HMGB1 (HMGB1): no binding
5.73,"C#CCC(Cc1cnc2nc(N)nc(N)c2n1)c1ccc(C(=O)N[C@@H](CCC(=O)O)C(=O)O)cc1 (stereo partly drawn) [Pralatrexate, pralatrexate]",,
,"Nc1nc(=O)c2c([nH]1)NCC(CNc1ccc(C(=O)NC(CCC(=O)O)C(=O)O)cc1)N2 (stereo not drawn) [Tetrahydrofolic acid, tetrahydrofolic acid]",,stability [1]: decomposition over time
